From ChEMBL document CHEMBL4340569, “Optimization of a small-molecule Lipid II binder” (Bioorg Med Chem Lett, 2019)

Assays:
Pseudomonas aeruginosa [1] = assay: Antimicrobial activity against Pseudomonas aeruginosa X13273 by broth dilution method; type: functional
[2] = Binding affinity to bacterial lipid 2 by surface plasmon resonance assay; parameters: species or system Bacteria
[3] = Ratio of EC50 for human HeLa cells to MIC of Enterococcus faecium; type: toxicity
[4] = Half life in CD1 mouse at […], iv measured after 5 mins to 14 hrs by LC/MS/MS analysis; type: ADME, organism-based; settings: in vivo; for half-life: CD1, mouse
Enterococcus faecium [5] = assay: Antimicrobial activity against Enterococcus faecium EF1509 by broth dilution method; type: functional
Staphylococcus aureus [6] = assay: Antimicrobial activity against Staphylococcus aureus ATCC […] by broth dilution method; type: functional; settings: ATCC 29213
Enterococcus faecium [7] = assay: Antimicrobial activity against vancomycin-resistant Enterococcus faecium F118 by broth dilution method; type: functional
Pseudomonas aeruginosa [8] = assay: Antimicrobial activity against Pseudomonas aeruginosa PAO1 by broth dilution method; type: functional
Acinetobacter baumannii = assay: Antimicrobial activity against Acinetobacter baumannii ATCC 19606 by broth dilution method; type: functional; settings: ATCC 19606 = CIP 70.34 = JCM 6841
[9] = MRT in CD1 mouse at […], iv measured after 5 mins to 14 hrs by LC/MS/MS analysis; type: ADME, organism-based; settings: in vivo
[10] = Volume of distribution at steady state in CD1 mouse at […], iv measured after 5 mins to 14 hrs by LC/MS/MS analysis; type: ADME, organism-based; settings: in vivo; for Vd: CD1, mouse, read-out: Vdss
[11] = Toxicity in CD1 mouse assessed as induction of adverse clinical observations at […], iv measured after 5 mins to 14 hrs; type: organism-based; settings: in vivo
Staphylococcus aureus [12] = assay: Antimicrobial activity against methicillin-resistant Staphylococcus aureus 1094 by broth dilution method; type: functional
[13] = Antimicrobial activity against Enterobacter cloacae ATCC 13047 by broth dilution method; type: functional, Enterobacter cloacae subsp. cloacae
Klebsiella aerogenes = assay: Antimicrobial activity against Klebsiella aerogenes ATCC 13048 by broth dilution method; type: functional
[14] = AUC (infinity) in CD1 mouse at […], iv measured after 5 mins to 14 hrs by LC/MS/MS analysis; type: ADME, organism-based; parameters: dose 2.5 mg/kg, time infinity, route intravenous; settings: in vivo
Pseudomonas aeruginosa [15] = assay: Antimicrobial activity against Pseudomonas aeruginosa ATCC 27853 by broth dilution method; type: functional
Enterococcus faecium [16] = assay: Antimicrobial activity against vancomycin-resistant Enterococcus faecium EF1509 by broth dilution method; type: functional
[17] = Cmax in CD1 mouse at […], iv measured after 5 mins to 14 hrs by LC/MS/MS analysis; type: ADME, organism-based; parameters: dose 2.5 mg/kg, route intravenous; settings: in vivo
[18] = Dose normalized AUClast in CD1 mouse at […], iv measured after 5 mins to 14 hrs by LC/MS/MS analysis; type: ADME, organism-based; settings: in vivo
Klebsiella pneumoniae [19] = assay: Antimicrobial activity against carbapenemase KPC producing Klebsiella pneumoniae NR-15411 by broth dilution method; type: functional
[20] = Extrapolated AUC in CD1 mouse at […], iv measured after 5 mins to 14 hrs by LC/MS/MS analysis; type: ADME, organism-based; settings: in vivo
[21] = AUClast in CD1 mouse at […], iv measured after 5 mins to 14 hrs by LC/MS/MS analysis; type: ADME, organism-based; parameters: time upper 14 hr, dose 2.5 mg/kg, time lower 0.083 hr, route intravenous; settings: in vivo
Klebsiella pneumoniae [22] = assay: Antimicrobial activity against carbapenemase KPC producing Klebsiella pneumoniae NR-15410 by broth dilution method; type: functional
Staphylococcus aureus [23] = assay: Antimicrobial activity against methicillin-resistant Staphylococcus aureus HFH-30123 by broth dilution method; type: functional
[24] = Cytotoxicity against human HeLa cells incubated for 72 hrs; type: cell-based

Compound CN(C)c1ccc(/C=C/c2cc(-c3ccc(F)cc3)cc(-c3ccc(F)cc3)[o+]2)cc1.F[B-](F)(F)F has an MIC (Pseudomonas aeruginosa [1]) of no less than 80 µM, a Kd [2] of 340 nM and a selectivity ratio [3] of no less than 80. It also gave a half-life [4] of 6.81 h, an MIC (Enterococcus faecium [5]) of 2 µM and an MIC (Staphylococcus aureus [6]) of 3.9 µM. For the same compound, the MIC (Enterococcus faecium [7]) was 6.25 µM, the MIC (Pseudomonas aeruginosa [8]) was no less than 80 µM and the MIC (Acinetobacter baumannii) was no less than 80 µM. The MRT ([9]; CD1, mouse, read-out: MRT) was 1.74 h, the Vd [10] was 46.3 L/kg and the Activity [11] was “Non-Toxic”. The MIC (Staphylococcus aureus [12]) was 4.42 µM, the MIC [13] was no less than 80 µM and the MIC (Klebsiella aerogenes) was no less than 80 µM. The AUC [14] was 578 ng·h/mL, the MIC (Pseudomonas aeruginosa [15]) was no less than 80 µM and the MIC (Enterococcus faecium [16]) was 1.56 µM. It also gave a Cmax [17] of 3220 ng/mL, an AUClast/dose [18] of 56.5 ng·h/mL and an MIC (Klebsiella pneumoniae [19]) of no less than 80 µM. For the same compound, the “%AUCextra” value [20] was 2.25%, the AUC(0-t) [21] was 565 ng·h/mL and the MIC (Klebsiella pneumoniae [22]) was no less than 80 µM. The MIC (Staphylococcus aureus [23]) was 6.25 µM and the CC50 at 72 h [24] was no less than 80 µg/mL.
Work on CC(=O)N1CCN(c2ccc(/C=C/c3cc(-c4ccc(F)cc4)cc(-c4ccc(F)cc4)[o+]3)cc2)CC1 yielded an MIC (Enterococcus faecium [5]) greater than 80 µM and an MIC (Staphylococcus aureus [6]) greater than 80 µM.
With ClCCN(CCCl)c1ccc(/C=C/c2cc(-c3ccc(Br)cc3)cc(-c3ccc(Br)cc3)[o+]2)cc1 the MIC (Enterococcus faecium [5]) was greater than 80 µM and the MIC (Staphylococcus aureus [6]) was greater than 80 µM.
Compound OCCN(CCO)c1ccc(/C=C/c2cc(-c3ccc(Br)cc3)cc(-c3ccc(Br)cc3)[o+]2)cc1 has an MIC (Enterococcus faecium [5]) greater than 80 µM and an MIC (Staphylococcus aureus [6]) greater than 80 µM.
Work on CN(/C=C/c1cc(-c2cccc(Br)c2)cc(-c2cccc(Br)c2)[o+]1)CCO yielded an MIC (Enterococcus faecium [5]) greater than 80 µM and an MIC (Staphylococcus aureus [6]) greater than 80 µM.
In the case of CN(C)c1ccc(/C=C/c2cc(-c3ccc(Br)cc3)cc(-c3ccc(Br)cc3)[o+]2)cc1.F[B-](F)(F)F, the MIC (Pseudomonas aeruginosa [1]) is reported as no less than 80 µM, the Kd [2] is reported as 150 nM and the selectivity ratio [3] is reported as no less than 80. For the same compound, the t1/2 ([4]; mouse) was 13.3 h, the MIC (Enterococcus faecium [5]) was 46.8 to 80 µM and the MIC (Staphylococcus aureus [6]) was 23.4 to 80 µM. It also gave an MIC (Enterococcus faecium [7]) of 5.65 µM, an MIC (Pseudomonas aeruginosa [8]) of no less than 80 µM and an MIC (Acinetobacter baumannii) of no less than 80 µM. For the same compound, the MRT ([9]; mouse) was 7.29 h, the Vdss ([10]; mouse) was 22.8 L/kg and the Activity [11] was “Non-Toxic”. For the same compound, the MIC (Staphylococcus aureus [12]) was 32 µM, the MIC [13] was no less than 80 µM and the MIC (Klebsiella aerogenes) was no less than 80 µM. It also gave an MIC (Pseudomonas aeruginosa [15]) of no less than 80 µM, an MIC (Enterococcus faecium [16]) of 2.82 µM and an AUClast/dose [18] of 536 ng·h/mL. For the same compound, the MIC (Klebsiella pneumoniae [19]) was no less than 80 µM, the “%AUCextra” value [20] was 24.3% and the MIC (Klebsiella pneumoniae [22]) was no less than 80 µM. For the same compound, the MIC (Staphylococcus aureus [23]) was 32 µM and the CC50 at 72 h [24] was no less than 80 µg/mL.
For CN1/C(=C/C=C/c2cc(-c3ccccc3)cc(-c3ccccc3)[o+]2)C(C)(C)c2ccccc21.F[B-](F)(F)F, the half-life [4] was 0.227 h, the MRT ([9]; CD1, mouse, read-out: MRT) was 0.226 h and the Vd [10] was 12.2 L/kg. For the same compound, the Activity [11] was “Non-Toxic”, the AUC [14] was 27.9 ng·h/mL and the Cmax [17] was 101 ng/mL. The AUClast/dose [18] was 26.9 ng·h/mL, the “%AUCextra” value [20] was 4.38% and the AUC(0-t) [21] was 26.9 ng·h/mL.
With CCC(=O)N1CCN(c2ccc(/C=C/c3cc(-c4cccc(Br)c4)cc(-c4cccc(Br)c4)[o+]3)cc2)CC1 the MIC (Enterococcus faecium [5]) was 51.4 µM and the MIC (Staphylococcus aureus [6]) was 12.8 µM.
In the case of ClCCN(/C=C/c1cc(-c2cccc(Br)c2)cc(-c2cccc(Br)c2)[o+]1)CCCl, the MIC (Enterococcus faecium [5]) is reported as 49.3 µM and the MIC (Staphylococcus aureus [6]) is reported as 49.3 µM.
OCCN(CCO)c1ccc(/C=C/c2cc(-c3cccc(F)c3)cc(-c3cccc(F)c3)[o+]2)cc1 gave an MIC (Pseudomonas aeruginosa [1]) of no less than 80 µM, a Kd [2] of 310 nM and a selectivity ratio [3] of 49.3. For the same compound, the MIC (Enterococcus faecium [5]) was 3.9 µM, the MIC (Staphylococcus aureus [6]) was 2.1 µM and the MIC (Enterococcus faecium [7]) was 12.5 µM. It also gave an MIC (Pseudomonas aeruginosa [8]) of no less than 80 µM, an MIC (Acinetobacter baumannii) of no less than 80 µM and an MIC (Staphylococcus aureus [12]) of 12.5 µM. It also gave an MIC [13] of no less than 80 µM, an MIC (Klebsiella aerogenes) of no less than 80 µM and an MIC (Pseudomonas aeruginosa [15]) of no less than 80 µM. The MIC (Enterococcus faecium [16]) was 3.13 µM, the MIC (Klebsiella pneumoniae [19]) was no less than 80 µM and the MIC (Klebsiella pneumoniae [22]) was no less than 80 µM. It also gave an MIC (Staphylococcus aureus [23]) of 12.5 µM and a CC50 at 72 h [24] of no less than 80 µg/mL.
Brc1ccc(-c2cc(/C=C/c3ccc(N4CCOCC4)cc3)[o+]c(-c3ccc(Br)cc3)c2)cc1 gave an MIC (Enterococcus faecium [5]) greater than 80 µM and an MIC (Staphylococcus aureus [6]) greater than 80 µM.
For O=C(c1ccccc1)N1CCN(c2ccc(/C=C/c3cc(-c4ccc(F)cc4)cc(-c4ccc(F)cc4)[o+]3)cc2)CC1, the MIC (Enterococcus faecium [5]) was 57 µM and the MIC (Staphylococcus aureus [6]) was 28.5 µM.
In the case of CN(C)c1ccc(/C=C/c2ccc(/C=C/c3cc(-c4ccc(Br)cc4)cc(-c4ccc(Br)cc4)[o+]3)cc2)cc1, the MIC (Enterococcus faecium [5]) is reported as greater than 80 µM and the MIC (Staphylococcus aureus [6]) is reported as greater than 80 µM.
Brc1ccc(-c2cc(/C=C/c3ccc(N4CCCCC4)cc3)[o+]c(-c3ccc(Br)cc3)c2)cc1 gave an MIC (Enterococcus faecium [5]) greater than 80 µM and an MIC (Staphylococcus aureus [6]) greater than 80 µM.
In the case of CN1/C(=C/C=C/c2cc(-c3ccc(Br)cc3)cc(-c3ccc(Br)cc3)[o+]2)C(C)(C)c2cc(Cl)ccc21, the MIC (Enterococcus faecium [5]) is reported as 22.5 µM and the MIC (Staphylococcus aureus [6]) is reported as 45.1 µM.
For CN(CCO)c1ccc(/C=C/c2cc(-c3ccc(Br)cc3)cc(-c3ccc(Br)cc3)[o+]2)cc1, the MIC (Enterococcus faecium [5]) was greater than 80 µM and the MIC (Staphylococcus aureus [6]) was greater than 80 µM.
Compound CN1/C(=C/c2ccc(/C=C/c3cc(-c4ccc(Br)cc4)cc(-c4ccc(Br)cc4)[o+]3)cc2)C(C)(C)c2ccccc21 has an MIC (Enterococcus faecium [5]) of 12.2 µM and an MIC (Staphylococcus aureus [6]) of 24.5 µM.
For Fc1ccc(-c2cc(/C=C/N3CCNCC3)[o+]c(-c3ccc(F)cc3)c2)cc1, the MIC (Pseudomonas aeruginosa [1]) was no less than 80 µM, the Kd [2] was 6200 nM and the selectivity ratio [3] was 62.6. It also gave an MIC (Enterococcus faecium [5]) of 1.9 µM, an MIC (Staphylococcus aureus [6]) of 3.8 µM and an MIC (Enterococcus faecium [7]) of 8.84 µM. The MIC (Pseudomonas aeruginosa [8]) was no less than 80 µM, the MIC (Acinetobacter baumannii) was no less than 80 µM and the MIC (Staphylococcus aureus [12]) was 6.25 µM. The MIC [13] was no less than 80 µM, the MIC (Klebsiella aerogenes) was no less than 80 µM and the MIC (Pseudomonas aeruginosa [15]) was no less than 80 µM. It also gave an MIC (Enterococcus faecium [16]) of 3.13 µM, an MIC (Klebsiella pneumoniae [19]) of no less than 80 µM and an MIC (Klebsiella pneumoniae [22]) of no less than 80 µM. The MIC (Staphylococcus aureus [23]) was 6.25 µM and the CC50 at 72 h [24] was no less than 80 µg/mL.
Work on CCN(CC)c1ccc(/C=C/c2cc(-c3ccc(Br)cc3)cc(-c3ccc(Br)cc3)[o+]2)cc1 yielded an MIC (Enterococcus faecium [5]) greater than 80 µM and an MIC (Staphylococcus aureus [6]) greater than 80 µM.
Compound CC(C)(C)OC(=O)N1CCN(c2ccc(/C=C/c3cc(-c4ccc(F)cc4)cc(-c4ccc(F)cc4)[o+]3)cc2)CC1 has an MIC (Enterococcus faecium [5]) greater than 80 µM and an MIC (Staphylococcus aureus [6]) greater than 80 µM.
